Test results: patent publication US20100010046A1, “PHARMACEUTICAL FORMULATION FOR PARENTERAL ADMINISTRATION” (IRONWOOD PHARMACEUTICALS, INC., priority 2006, published 2010)

Assays:
[1] = system: indomethacin-induced rat gastric ulcers; conditions: subcutaneous, 50 μg/kg; cited from earlier work
[2] = system: isolated canine parietal cell preparation; experiment: Inhibition of histamine-stimulated acid secretion in an isolated canine parietal cell preparation; assay type: cell-based; conditions: Canis lupus familiaris, read-out: IC50 (nM), concentration required to inhibit 50% of maximal histamine-stimulated acid secretion
Text: Concentrations required to inhibit 50% of maximal histamine-stimulated acid secretion in an isolated canine parietal cell preparation is shown in Table 1 below.

[3] = room temperature; presence of water (U.S. Pat. No. 5,324,746); cited from earlier work

SMILES: CCCCC(C)(O)C/C=C/[C@H]1C(O)CC(=O)[C@@H]1CCCCCCC(=O)OC (stereo partly drawn) [Misoprostol]
- reduced lesion formulation [1]: up to 60%
- IC50 [2]: 3.8 nM
- chemical stability [3]: chemically unstable at room temperature and breaks down in the presence of water
